Reference: US20230279132A1, “TREATMENT OF B CELL MALIGNANCIES” (NOVARTIS AG, priority 2020, published 2023)
Like-named read-outs stand apart in the source and are kept apart here.

What was measured:
DLBCL = settings: cited from earlier work
MCL = settings: cited from earlier work; for response rates: relapsed MCL, targeted therapies
SUDHL4 cells = experiment: in vitro ADCC assay (Calcein AM-labeled SUDHL4 cells) with PBMC, pNK or NK3.3 effector cells; assay type: cell-based; settings: for improvement in VAY736-induced ADCC with lenalidomide: 72 hr lenalidomide treatment
Description: NK3.3 cells were collected, washed 1×, and incubated in starvation media with or without 3 uM lenalidomide. Cells were incubated for 48 hrs or 72 hrs, collected, spun down, and resuspended in assay buffer. 100 μl of NK3.3 cells at the designated E:T ratios were transferred to a 96 well plate with SUDHL4 cells and antibodies. The co-culture was incubated for 2 hrs.
(§1) Frozen PBMC were thawed, or fresh PBMCs were isolated. If T cells were depleted, PBMC were used for a positive depletion of CD3 using CD3 beads (Miltenyi #130-050-101). Cells were washed 1×, and incubated in unstimulated media (phenol red free/glutamax/hepes/anti-penicillin anti-streptomycin/FBS) with or without 3 μM, 1 μM or 10 μM Lenalidomide. Cells were incubated for 24 hrs or 72 hrs. The supernatant was taken and frozen for IL2 analysis. In one study, for the 72 hr culture, 100 pg/ml IL2 was added to the culture for the last 24 hrs. Primary NK cells were isolated the day of the co-culture setup. 100 μl of PBMC or pNK cells at the designated E:T ratios were transferred to the 96 well plate with the SUDHL4 cells and antibodies. The co-culture was incubated for 3 hrs or 4 hrs.
A total of 10e6 or 4e6 SUDHL4 cells were incubated with Calcein AM for 60 minutes. Cells were then washed 2× with 30 ml of media. Cells were counted, and resuspended to 0.15 e6/ml or 0.2 e6/ml, and in one study 40 ng/ml of IL2 was added. A total of 50 μl cells were then transferred to a 96 well plate. […] Effector cells were then added to the 96 well plate. The plate was then spun in a centrifuge without the brake at 200×g for 4 min, and the co-culture was incubated for 2 hrs, 3 hrs or 4 hrs. The plate was then spun without the brake at 1500 RPM for 4 min. 100 μl of the supernatant was moved to black 96 well plates (Corning, #3904) and fluorescence was recorded with a PerkinElmer Envision plate reader.

B cells [1] = experiment: three repeated dose toxicity studies; assay type: in vivo, cynomolgus monkeys
Description: (§2) A rising single i.v. dose range finding (DRF), toxicity and TK/PD study and three repeated dose toxicity studies were performed with ianalumab in cynomolgus monkeys. B-cell levels were evaluated in the studies.

BAFF = experiment: Phase Ib study CVAY736Y2102: free BAFF; assay type: in vivo, human; settings: VAY736 in combination with ibrutinib
BAFF-R = target: T1, BAFF-R (Homo sapiens, UniProt Q96RJ3); experiment: Phase Ib study CVAY736Y2102: tissue receptor occupancy; assay type: in vivo; settings: VAY736 doses of 3 mg/kg or above, in combination with ibrutinib
T1 construct: from tissue

B cells [2] = assay type: in vivo, cynomolgus monkeys
Description: as §2

DLBCL cell line SUDHL4 = experiment: in vivo DLBCL model: SUDHL4 implanted subcutaneously into SCID mice; settings: 5 mg/kg or 50 mg/kg VAY736 intravenously weekly
Text: Vehicle and rituximab were used as controls.

mature B cell = experiment: repeat dose toxicity study in mice: healthy B-cell levels; assay type: in vivo, CD-1 mice
Description: CD-1 mice were administered 0 mg/kg or 100 mg/kg of ianalumab by intravenous administration weekly for 13 weeks, followed by an 11 week recovery period.

IL2 = IL2 production in PBMC treated with lenalidomide; assay type: cell-based; settings: 72 hr lenalidomide, PBMC with and without CD3+ cells (FIG. 8)
Description: as §1

brentuximab vedotin
ORR (DLBCL; CD30+ relapsed DLBCL): 44%

CC(C)C[C@H](NC(=O)[C@H](Cc1ccccc1)NC(=O)c1cnccn1)B(O)O [bortezomib]
response rates (MCL): improved response rates

blinatumomab: bispecific antibody
response rates (DLBCL; DLBCL): 35-50%

CO[C@H]1C[C@@H]2CC[C@@H](C)[C@@](O)(O2)C(=O)C(=O)N2CCCC[C@H]2C(=O)O[C@H]([C@H](C)C[C@@H]2CC[C@@H](OC(=O)C(C)(CO)CO)[C@H](OC)C2)CC(=O)[C@H](C)/C=C(\C)[C@@H](O)[C@@H](OC)C(=O)[C@H](C)C[C@H](C)/C=C/C=C/C=C/1C [temsirolimus]
response rates (MCL): improved response rates

polatuzumab vedotin
ORR (DLBCL; in combination with rituximab and bendamustine): 70%

C=CC(=O)N1CCC[C@@H](n2nc(-c3ccc(Oc4ccccc4)cc3)c3c(N)ncnc32)C1 [ibrutinib]
treatment-related adverse effects compared to temsirolimus (MCL; Phase III study): fewer treatment-related adverse effects

VAY736: non-fucosylated human IgG1 kappa anti-BAFFR antibody with enhanced ADCC; heavy chain SEQ ID NO: 9, light chain SEQ ID NO: 10
ADCC in the presence of VAY736 (SUDHL4 cells; effector cells PBMC, pNK cells, NK3.3 cell line): potent ADCC
VAY736-dependent specific lysis of SUDHL4 cells, dose dependence (SUDHL4 cells; various effector cells): dose-dependent
B cell depletion (B cells [1]): B cell depletion was observed at all dose levels
free BAFF (BAFF): accumulated to steady state with no dose relationship
tissue receptor occupancy (BAFF-R): > 99%
tolerability (B cells [2]; cynomolgus monkey, in vivo): well tolerated
dose that induced depletion of B cells (B cells [2]; single i.v. dose): ≥ 0.4 mg/kg
tumor growth compared to the vehicle control (tumor volume measurements over time) (DLBCL cell line SUDHL4): significantly slowed tumor growth
mature B cell depletion (mature B cell; 100 mg/kg intravenous weekly for 13 weeks): 70-90%
B cell levels during the recovery period (mature B cell; 11 week recovery period after 100 mg/kg weekly for 13 weeks): recovered

Nc1cccc2c1CN(C1CCC(=O)NC1=O)C2=O (stereo not drawn) [lenalidomide]
IL2 production in PBMC (IL2): IL2 produced by lenalidomide treatment by T cells
ADCC with lenalidomide pretreatment (SUDHL4 cells; NK3.3 effector cells, E:T 20:1 and 7:1, 72 hr and 48 hr pretreatment (FIGS. 5, 6)): Slight increases in ADCC
VAY736-induced ADCC with addition of lenalidomide (SUDHL4 cells; NK3.3 effector cells, more prominent with 72 hr pretreatment at E:T 20:1 (FIG. 2A-2B)): Increases in VAY736-induced ADCC
VAY736-induced ADCC with lenalidomide pretreatment (SUDHL4 cells; PBMC effector cells, 24 hrs pretreatment, E:T 2:1): only showed an enhancement at the highest concentration
VAY736-induced ADCC with lenalidomide pretreatment (SUDHL4 cells; PBMC effector cells, 24 hrs pretreatment, E:T 10:1): enhanced VAY736-induced ADCC
VAY736-induced ADCC with lenalidomide pretreatment (SUDHL4 cells; PBMC effector cells, 24 hrs pretreatment, E:T 20:1): only a slight enhancement
improvement in VAY736-induced ADCC with lenalidomide (SUDHL4 cells; PBMC effector cells, E:T 2:1): evident
improvement in VAY736-induced ADCC with lenalidomide (SUDHL4 cells; PBMC effector cells, E:T 6:1): less pronounced
VAY736-induced ADCC with lenalidomide (SUDHL4 cells; PBMC effector cells, 72 hr, E:T 3:1, largely dose-independent, hampered with IL2 stimulation): increased VAY736-induced ADCC
dependence of the ADCC enhancement by lenalidomide on CD3+ T cells (SUDHL4 cells; PBMC vs CD3+ depleted PBMC, 72 hr): dependent on the presence of CD3+ T cells
VAY736-induced ADCC with lenalidomide pretreatment (SUDHL4 cells; pNK cells isolated from PBMC pretreated 24 hrs, more so with 10:1 and 20:1): enhanced VAY736-induced ADCC
VAY736-induced ADCC with lenalidomide pretreatment (SUDHL4 cells; pNK cells, 72 hr Len pretreatment, E:T 1:1 and 1:3): enhanced VAY736-induced ADCC
VAY736-dependent percent specific lysis of SUDHL4 cells on addition of lenalidomide (SUDHL4 cells; various effector cells and treatment conditions): enhanced
ORR (MCL; heavily pre-treated population, Phase II study EMERGE): 28%
